Results: patent US20110142959A1, “METHODS, SYSTEMS AND COMPOSITIONS INVOLVED IN THE SYNTHESIS OF NONSTABLE COMPOUNDS” (priority 2009, published 2011)

Assay: Degradation of ferrate (K2FeO4) in solution at various pH
Assay type: physicochemical
Method: FIG. 1 is a profile of the ferrate concentration starting at 0.1% (5 mM) at the native pH of K2FeO4, about 10.7. […] FIGS. 2 and 3 show the ferrate degrading faster at the higher pH's recommended by the Ciampi et al patent(s). Within about 21-46 minutes in the range of pH 11.2-11.8 the ferrate completely degraded. At this higher pH the Fe(OH)3 forms much faster and contributes to the acceleration in degradation.
FIG. 4 discloses a slightly lower pH of 10.4 which was buffered to approximately pH 9 with NaOH. Ferrate was detected in the solution for about four hours.

time ferrate was detected in the solution (pH 10.4, buffered to approximately pH 9 with NaOH (FIG. 4)): about four
time within which the ferrate completely degraded (pH 11.2-11.8 (FIGS. 2 and 3)): 21 to 46 min
time ferrate was present in the solution (starting at 0.1% (5 mM), native pH of K2FeO4 about 10.7 (FIG. 1)): about 220 minutes
Substance: K2FeO4
